# US9518022B2, “Anti-HIV compounds” (priority 2014, dated 2016)
# Where two headings read alike, the source gives them in different places.
# Assay: Cytotoxicity assay (AlamarBlue) in mock infected MT-2 cells
# Format: cell-based
# Conditions: human
# Protocol: The present assay was used to screen candidate antiviral compounds by quantification of virus spread and production over several rounds of infection in vitro. MT-2, a HIV-1 permissive human T-cell line, was seeded in microtiter plates and was simultaneously treated with serially diluted compound and inoculated with a HIV-1 NL4-3 viral clone engineered to express Renilla luciferase in place of Nef. Following treatment, the culture was incubated for 96 hours. After the incubation, media was collected and used to estimate relative infectivity on the indicator cell line, TZM-bl. Additionally, viral spread was quantified by measuring luciferase activity via a commercially available luciferase substrate. In parallel, MT-2 cells were seeded and inoculated with mock virus in the presence of serially diluted compound. Compound toxicity was quantified 96 hours after treatment with AlamarBlue.
# MT-2 (NIH Aids reagent program 237) cells were grown and maintained in an incubator at 37° C. with 5% CO2 using a basal medium of RPMI-1640 supplemented with 10% FBS. Cells were seeded in 100 μl at 2×10^4 cells/well in white walled 96-well microtiter plates. Candidate compounds were 3-fold serially diluted in the appropriate solvent. Solvent without compound was used as a no drug reference. Cells were inoculated at a multiplicity of 0.027 with an HIV-1 NL4-3 virus stock engineered to express Renilla luciferase in place of Nef. Diluted virus stock was first added to serially diluted compound. Compound and virus were delivered to cells in an equal volume (100 μl) and treated cultures were returned to the incubator for 96 hours. In parallel, plates for cytotoxicity estimates were prepared in the same way except cells were plated in clear walled 96-well microtiter plates and were mock infected.
# At 96 hours post treatment, 20 μl AlamarBlue proliferation reagent was added to 200 μl treated and mock infected cultures and incubated for 3 hours at 37° C. with 5% CO2 then read at 545, 590 nm on fluorescence plate reader (Biotek).
# For all assays, data was imported into Accelrys Assay Explorer 3.3. In Assay Explorer, % inhibition (antiviral or cytotoxicity) was calculated using the solvent control as a reference by the following equation: 1−(SignalCompound/SignalReference). The % Inhibition and compound concentration data was fitted using the following 4-parameter logistic model (Assay Explorer model 42):
# [formula] where X is compound concentration, Y is % inhibition, D is the maximum % Inhibition (constrained to 100%), C is IC50 value or inflection point, B is the hill slope, and A is the minimum % inhibition (constrained to 0%). The IC50 value is reported as the EC50 or CC50 depending on the assay endpoint. EC50 represents the effective concentration at which virus replication is inhibited by 50 percent. CC50 represents the concentration that results in the death of 50 percent of the host cells. The selectivity or therapeutic index (SI or TI), is the ratio of CC50 over EC50 and represents the relative effectiveness in inhibiting viral replication compared to inducing cell death.
# [1] = mock infected MT-2 cells, 96 hours, AlamarBlue, read-out: CC50
Compound,CC50 at 96 h [µM],CC50 at 96 h [1] [µM]
"COc1ccc(/C=C/C2NCCc3cc(OCc4ccccc4)c(OC)cc32)cc1Cn1ccnc1C (centres unmarked) [EN, 6-(benzyloxy)-7-methoxy-1-[(E)-2-{4-methoxy-3-[(2-methyl-1H-imidazol-1-yl)methyl]phenyl}ethenyl]-1,2,3,4-tetrahydroisoquinoline]",4.03,–
"COc1cc2c(cc1OCc1ccccc1)CCNC2/C=C/c1cc2c(cc1C)OCC2 (centres unmarked) [CG, 6-(benzyloxy)-7-methoxy-1-[(E)-2-(6-methyl-2,3-dihydro-1-benzofuran-5-yl)ethenyl]-1,2,3,4-tetrahydroisoquinoline]",4.8,–
"COc1cc(/C=C/C2NCCc3cc(OC)c(OCc4ccccc4)cc32)ccc1OCc1ccccc1 (centres unmarked) [Example S, 7-benzyloxy-1-[(E)-2-(4-benzyloxy-3-methoxy-phenyl)vinyl]-6-methoxy-1,2,3,4-tetrahydroisoquinoline]",8.25,–
"COc1cc2c(cc1OCc1ccccc1)CCNC2/C=C/c1cccc(OCc2ccccc2)c1 (centres unmarked) [BK, 6-(benzyloxy)-1-[(E)-2-[3-(benzyloxy)phenyl]ethenyl]-7-methoxy-1,2,3,4-tetrahydroisoquinoline]",4,–
"COc1ccc(/C=C/C2NCCc3cc(OCc4ccccc4)c(OC)cc32)cc1Br (centres unmarked) [AR, 6-(benzyloxy)-1-[(E)-2-(3-bromo-4-methoxyphenyl)ethenyl]-7-methoxy-1,2,3,4-tetrahydroisoquinoline]",–,6.2
"COc1cc(C)c(/C=C/C2c3cc(OC)c(OCc4ccccc4)cc3CCN2C(=O)NC(C)(C)C)cc1OCc1ccccc1 (centres unmarked) [Example O, 6-benzyloxy-1-[(E)-2-(5-benzyloxy-4-methoxy-2-methyl-phenyl)vinyl]-N-tert-butyl-7-methoxy-3,4-dihydro-1H-isoquinoline-2-carboxamide]",> 10,–
"COc1cc2c(cc1OCc1ccccc1)CCNC2/C=C/c1cc(OC)c(OCc2ccccc2)c(OC)c1 (centres unmarked) [AP, 6-(benzyloxy)-1-[(E)-2-[4-(benzyloxy)-3,5-dimethoxyphenyl]ethenyl]-7-methoxy-1,2,3,4-tetrahydroisoquinoline]",–,1.64
"COc1cc2c(cc1OCc1ccccc1)CCNC2/C=C/c1ccc(OC)c2occc12 (centres unmarked) [Example AN, 6-Benzyloxy-7-methoxy-1-[(E)-2-(7-methoxybenzofuran-4-yl)vinyl]-1,2,3,4-tetrahydroisoquinoline]",3.7,–
"COc1cc(OC)c(OC)cc1/C=C/C1NCCc2cc(OCc3ccccc3)c(OC)cc21 (centres unmarked) [AQ, 6-(benzyloxy)-7-methoxy-1-[(E)-2-(2,4,5-trimethoxyphenyl)ethenyl]-1,2,3,4-tetrahydroisoquinoline]",–,1.98
"COc1ccc(/C=C/C2NCCc3cc(OCc4ccccc4)c(OC)cc32)c(C)c1 (centres unmarked) [Example AG, 6-benzyloxy-7-methoxy-1-[(E)-2-(4-methoxy-2-methyl-phenyl)vinyl]-1,2,3,4-tetrahydroisoquinoline]",9.83,–
"COc1cc2c(cc1OCc1ccccc1)CCNC2/C=C/c1cc2c(cc1C)OCCO2 (centres unmarked) [BC, 6-(benzyloxy)-7-methoxy-1-[(E)-2-(7-methyl-2,3-dihydro-1,4-benzodioxin-6-yl)ethenyl]-1,2,3,4-tetrahydroisoquinoline]",2.43,–
"COc1cc2c(cc1OCc1ccccc1)CCNC2/C=C/c1ccc(-n2ccnc2)cc1 (centres unmarked) [DK, 6-(benzyloxy)-1-[(E)-2-[4-(1H-imidazol-1-yl)phenyl]ethenyl]-7-methoxy-1,2,3,4-tetrahydroisoquinoline]",9.13,–
"CCc1cc(OC)c(OCc2ccccc2)cc1/C=C/C1NCCc2cc(OCc3ccccc3)c(OC)cc21 (centres unmarked) [Example AA, 6-benzyloxy-1-[(E)-2-(5-benzyloxy-2-ethyl-4-methoxy-phenyl)vinyl]-7-methoxy-1,2,3,4-tetrahydroisoquinoline]",3.89,–
"COc1cc(C)c(/C=C/C2c3cc(OC)c(OCc4ccccc4)cc3CCN2C(N)=O)cc1OCc1ccccc1 (centres unmarked) [Example R, 6-benzyloxy-1-[(E)-2-(5-benzyloxy-4-methoxy-2-methyl-phenyl)vinyl]-7-methoxy-3,4-dihydro-1H-isoquinoline-2-carboxamide]",–,39.3
